Results: the supplement of paper PMC11208160

Experiment: recombinant UMI read abundance after kanamycin selection (control-corrected) (log10(CPM+1)); higher = more efficient recombination; extreme values may be limits of the assay; sequences stand for … in AGTGCAGAGAAAATCGGCCAGTTTTCTCTGCCTGCAGTCCGCATGCCGTGGGACCCCTTGGGTTCTAACCTGTTGCCTAGATTTATGCAGCGGACTGCCTTTCTCCCAAAGTGATAAACCGG…AGGTTGGTTTCACT; site = the 11-nt donor
Method in brief: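 After plating on IPTG (0.07 mM) plus kanamycin, or unselected, in two replicates, recombinant UMIs were PCR-amplified across the donor–target junction and sequenced. The cells were Escherichia coli co-electroporated with a UMI-tagged donor and donor-binding-loop pair library and a target plasmid with a fixed target and T7-inducible IS621 bridge recombinase. Values are log10(CPM+1), with CPM averaged over replicates and scaled by control-derived factors.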
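Note: IS621 bridge recombinase in Escherichia coli cells against a fixed T5 target plasmid.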

Sequence	recombinant UMI read abundance (log10)
GCTTATACATGGACCGGTTTTCCCGGTAATCCGTATTTGCT (site GCTTATACTAG)	0
GCTTGCCCATGGACCGGTTTTCCCGGTAATCCGTATTTGAG (site GCTTGCCCTAT)	0.0201
GCTTGCCCATGGACCGGTTTTCCCGGTAATCCGTATTTGAG (site GCTTGCCCTCT)	0.0701
GCTTGCCCATGGACCGGTTTTCCCGGTAATCCGTATTTGAG (site GCTTGCCCTGT)	0
GCTTGCCCATGGACCGGTTTTCCCGGTAATCCGTATTTGAG (site GCTTGCCCTTT)	0.107
GCTTGCCCATGGACCGGTTTTCCCGGTAATCCGTATTTGTT (site GCTTGCCCTAA)	0.0266
GCTTGCCCATGGACCGGTTTTCCCGGTAATCCGTATTTGTT (site GCTTGCCCTAC)	0.0939
GCTTGCCCATGGACCGGTTTTCCCGGTAATCCGTATTTGTT (site GCTTGCCCTAG)	0
GCTTGCCCATGGACCGGTTTTCCCGGTAATCCGTATTTGTT (site GCTTGCCCTAT)	0.013
GCTTGGACATGGACCGGTTTTCCCGGTAATCCGTATTTGAC (site GATTGGACTGT)	0
GCTTGGACATGGACCGGTTTTCCCGGTAATCCGTATTTGAC (site GCTTGGACTGT)	2.39
GCTTGGACATGGACCGGTTTTCCCGGTAATCCGTATTTGAC (site GGTTGGACTGT)	0.132
GCTTGGACATGGACCGGTTTTCCCGGTAATCCGTATTTGAC (site GTTTGGACTGT)	0.707
GCTTGGCCATGGACCGGTTTTCCCGGTAATCCGTATTTGAT (site GCTTGACCTAT)	0.00769
GCTTGGCCATGGACCGGTTTTCCCGGTAATCCGTATTTGAT (site GCTTGCCCTAT)	0.00795
GCTTGGCCATGGACCGGTTTTCCCGGTAATCCGTATTTGAT (site GCTTGGCCTAT)	0
GCTTGGCCATGGACCGGTTTTCCCGGTAATCCGTATTTGAT (site GCTTGTCCTAT)	0.00708
GCTTGTACATGGACCGGTTTTCCCGGTAATCCGTATTTGGT (site GCTTGTACTAC)	1.08
GCTTTAACATGGACCGGTTTTCCCGGTAATCCGTATTTGCT (site GCTTTAACTAG)	0.0522
GCTTTCCCATGGACCGGTTTTCCCGGTAATCCGTATTTGAT (site GCTTACCCTAT)	0
GCTTTCCCATGGACCGGTTTTCCCGGTAATCCGTATTTGAT (site GCTTCCCCTAT)	0.00917
GCTTTCCCATGGACCGGTTTTCCCGGTAATCCGTATTTGAT (site GCTTGCCCTAT)	0.00235
GCTTTCCCATGGACCGGTTTTCCCGGTAATCCGTATTTGAT (site GCTTTCCCTAT)	0.343
GGAAACTCATGGACCGGTTTTCCCGGTAATCCGTATTTGTC (site GGAAACTCTGA)	2.42
GGAAAGACATGGACCGGTTTTCCCGGTAATCCGTATTTGCC (site GGAAAGACTGG)	1.64

Sequence	recombinant UMI read abundance (log10)
GGAAAGACATGGACCGGTTTTCCCGGTAATCCGTATTTGCC (site GGACAGACTGG)	0
GGAAAGACATGGACCGGTTTTCCCGGTAATCCGTATTTGCC (site GGAGAGACTGG)	0.347
GGAAAGACATGGACCGGTTTTCCCGGTAATCCGTATTTGCC (site GGATAGACTGG)	0
GGAAAGGCATGGACCGGTTTTCCCGGTAATCCGTATTTGCT (site AGAAAGGCTAG)	1.75
GGAAAGGCATGGACCGGTTTTCCCGGTAATCCGTATTTGCT (site CGAAAGGCTAG)	1.06
GGAAAGGCATGGACCGGTTTTCCCGGTAATCCGTATTTGCT (site GGAAAGGCTAG)	2.39
GGAAAGGCATGGACCGGTTTTCCCGGTAATCCGTATTTGCT (site TGAAAGGCTAG)	1.25
GGAACAGCATGGACCGGTTTTCCCGGTAATCCGTATTTGCC (site GGAACAGCTGG)	3.09
GGAACATCATGGACCGGTTTTCCCGGTAATCCGTATTTGCT (site CGATCATCTAG)	0
GGAACATCATGGACCGGTTTTCCCGGTAATCCGTATTTGCT (site GGAACATCTAG)	2.03
GGAACTTCATGGACCGGTTTTCCCGGTAATCCGTATTTGGC (site GGAACTTCTGC)	1.94
GGAAGATCATGGACCGGTTTTCCCGGTAATCCGTATTTGAA (site GGAAGATCTTT)	2.06
GGACACCCATGGACCGGTTTTCCCGGTAATCCGTATTTGTT (site GGACACCCTAA)	0.444
GGACACCCATGGACCGGTTTTCCCGGTAATCCGTATTTGTT (site GGCCACCCTAA)	0.011
GGACACCCATGGACCGGTTTTCCCGGTAATCCGTATTTGTT (site GGGCACCCTAA)	0.0209
GGACACCCATGGACCGGTTTTCCCGGTAATCCGTATTTGTT (site GGTCACCCTAA)	0.00995
GGACACGCATGGACCGGTTTTCCCGGTAATCCGTATTTGAC (site GGACACGCTGT)	2.38
GGACGCGCATGGACCGGTTTTCCCGGTAATCCGTATTTGGA (site GGACGCGCTTC)	0.00923
GGACGGCCATGGACCGGTTTTCCCGGTAATCCGTATTTGCG (site GGACGGCCTCG)	0.137
GGACTAGCATGGACCGGTTTTCCCGGTAATCCGTATTTGTA (site GGACTAGCTTA)	2.56
GGAGACACATGGACCGGTTTTCCCGGTAATCCGTATTTGTC (site GGAGACACTGA)	2.59
GGAGCATCATGGACCGGTTTTCCCGGTAATCCGTATTTGAA (site GGAGCATCTTT)	1.8
GGAGGCCCATGGACCGGTTTTCCCGGTAATCCGTATTTGAT (site GGAGGCCCTAT)	0.727
GGAGGGCCATGGACCGGTTTTCCCGGTAATCCGTATTTGGC (site GGAGGGCCTGC)	0
GGAGGTACATGGACCGGTTTTCCCGGTAATCCGTATTTGCG (site GGAGGTACTCG)	1.31

Sequence	recombinant UMI read abundance (log10)
GGAGTCGCATGGACCGGTTTTCCCGGTAATCCGTATTTGGT (site GGAGTAGCTAC)	0.278
GGAGTCGCATGGACCGGTTTTCCCGGTAATCCGTATTTGGT (site GGAGTCGCTAC)	0.854
GGAGTCGCATGGACCGGTTTTCCCGGTAATCCGTATTTGGT (site GGAGTGGCTAC)	0.0282
GGAGTCGCATGGACCGGTTTTCCCGGTAATCCGTATTTGGT (site GGAGTTGCTAC)	0.00431
GGAGTGACATGGACCGGTTTTCCCGGTAATCCGTATTTGGT (site GGAGTGACTAC)	0.736
GGAGTGACATGGACCGGTTTTCCCGGTAATCCGTATTTGGT (site GGAGTGCCTAC)	0.00536
GGAGTGACATGGACCGGTTTTCCCGGTAATCCGTATTTGGT (site GGAGTGGCTAC)	0.259
GGAGTGACATGGACCGGTTTTCCCGGTAATCCGTATTTGGT (site GGAGTGTCTAC)	0.92
GGAGTGGCATGGACCGGTTTTCCCGGTAATCCGTATTTGCT (site GGAGTGGCTAA)	0.463
GGAGTGGCATGGACCGGTTTTCCCGGTAATCCGTATTTGCT (site GGAGTGGCTAC)	0.163
GGAGTGGCATGGACCGGTTTTCCCGGTAATCCGTATTTGCT (site GGAGTGGCTAG)	2.36
GGAGTGGCATGGACCGGTTTTCCCGGTAATCCGTATTTGCT (site GGAGTGGCTAT)	0.809
GGAGTGGCATGGACCGGTTTTCCCGGTAATCCGTATTTGGC (site GGAGTGGCTAC)	0.502
GGAGTGGCATGGACCGGTTTTCCCGGTAATCCGTATTTGGC (site GGAGTGGCTCC)	0.101
GGAGTGGCATGGACCGGTTTTCCCGGTAATCCGTATTTGGC (site GGAGTGGCTGC)	2
GGAGTGGCATGGACCGGTTTTCCCGGTAATCCGTATTTGGC (site GGAGTGGCTTC)	0.328
GGAGTGGCATGGACCGGTTTTCCCGGTAATCCGTATTTGGT (site AGAGTGGCTAC)	0.902
GGAGTGGCATGGACCGGTTTTCCCGGTAATCCGTATTTGGT (site CGAGTGGCTAC)	0.437
GGAGTGGCATGGACCGGTTTTCCCGGTAATCCGTATTTGGT (site GAAGTGGCTAC)	0.126
GGAGTGGCATGGACCGGTTTTCCCGGTAATCCGTATTTGGT (site GCAGTGGCTAC)	0.497
GGAGTGGCATGGACCGGTTTTCCCGGTAATCCGTATTTGGT (site GGAATGGCTAC)	0.749
GGAGTGGCATGGACCGGTTTTCCCGGTAATCCGTATTTGGT (site GGACTGGCTAC)	0.0487
GGAGTGGCATGGACCGGTTTTCCCGGTAATCCGTATTTGGT (site GGAGAGGCTAC)	0.524
GGAGTGGCATGGACCGGTTTTCCCGGTAATCCGTATTTGGT (site GGAGCGGCTAC)	0.00445
GGAGTGGCATGGACCGGTTTTCCCGGTAATCCGTATTTGGT (site GGAGGGGCTAC)	0.461
